US9476099B2 (TRUSTEES OF DARTMOUTH COLLEGE, priority 2012, dated 2016)

Tested on: gene promoters in NT2/D1-R1 control and DNMT3B knockdown cells
Experiment: Genome-wide promoter methylation analysis, HumanMethylation27 BeadChip (Table 15)
Type: cell-based, human
Conditions: sh-3b + 5aza
Procedure: DNA methylation analysis was performed in samples in triplicate using the […] […] assay with the HumanMethylation27 BeadChip ([…]) and the BeadChip was scanned on the BeadArray Reader ([…]), according to the manufacturer's instructions. Raw data was normalized and analyzed with Genome Studio software ([…]). The HumanMethylation27 BeadChip assays 27,578 CpGs covering more than 14,000 genes, mostly from promoter regions. […] Hierarchical clustering was performed as stated above. HumanMethylation27 BeadChip data and gene expression microarray data were submitted to NCBI GEO.

Nc1ncn([C@H]2C[C@H](O)[C@@H](CO)O2)c(=O)n1 [5aza]
SERPING1 cg12783776 promoter methylation Mean: 0.350 | SFRS16 cg19317638 promoter methylation Mean: 0.369 | SFXN3 cg04880063 promoter methylation Mean: 0.188 | SH3BGRL2 cg03080985 promoter methylation Mean: 0.260 | SHH cg25167838 promoter methylation Mean: 0.127 | SKIP cg04072323 promoter methylation Mean: 0.310 | SLC30A2 cg05674944 promoter methylation Mean: 0.337 | SMCP cg09542291 promoter methylation Mean: 0.504 | SNX9 cg26845300 promoter methylation Mean: 0.722 | SOX17 cg21226224 promoter methylation Mean: 0.495 | SPRR1B cg24884084 promoter methylation Mean: 0.334 | SSH1 cg11747499 promoter methylation Mean: 0.292 | SSTR1 cg27590397 promoter methylation Mean: 0.900 | TAC1 cg07550362 promoter methylation Mean: 0.507 | TADA3L cg09279263 promoter methylation Mean: 0.350 | TERT cg02545192 promoter methylation Mean: 0.311 | TNFSF10 cg16555388 promoter methylation Mean: 0.430 | TNRC4 cg26093148 promoter methylation Mean: 0.661 | TNRC15 cg07230446 promoter methylation Mean: 0.243 | TRAF3 cg24165760 promoter methylation Mean: 0.797 | TRIM2 cg12793610 promoter methylation Mean: 0.506 | TRIM36 cg10693071 promoter methylation Mean: 0.545 | TRPM3 cg20555507 promoter methylation Mean: 0.291 | UNC5D cg00297600 promoter methylation Mean: 0.384 | WDR13 cg25053301 promoter methylation Mean: 0.211 | ZFHX1B cg15377518 promoter methylation Mean: 0.472 | ZNF222 cg09757277 promoter methylation Mean: 0.355 | cg07512517 promoter methylation Mean: 0.473 | Mean promoter methylation, ABCA3 cg02331561 (DNMT3B knockdown cells): 0.145 | Mean promoter methylation, ABLIM3 cg05026186 (DNMT3B knockdown cells): 0.240 | Mean promoter methylation, ACTL6B cg08572611 (DNMT3B knockdown cells): 0.138 | Mean promoter methylation, ANKRD46 cg23737055 (DNMT3B knockdown cells): 0.257 | Mean promoter methylation, ARNT2 cg17788682 (DNMT3B knockdown cells): 0.139 | Mean promoter methylation, B4GALNT3 cg05769161 (DNMT3B knockdown cells): 0.271 | Mean promoter methylation, BTBD1 cg16958189 (DNMT3B knockdown cells): 0.259 | Mean promoter methylation, C1RL cg22593785 (DNMT3B knockdown cells): 0.188 | Mean promoter methylation, C10orf10 cg17186163 (DNMT3B knockdown cells): 0.237 | Mean promoter methylation, C10orf72 cg02569613 (DNMT3B knockdown cells): 0.312 | Mean promoter methylation, C12orf34 cg01335367 (DNMT3B knockdown cells): 0.420 | Mean promoter methylation, C17orf40 cg18042079 (DNMT3B knockdown cells): 0.213 | Mean promoter methylation, C19orf30 cg07456645 (DNMT3B knockdown cells): 0.254 | Mean promoter methylation, C20orf29 cg09158909 (DNMT3B knockdown cells): 0.226 | Mean promoter methylation, C22orf9 cg11221513 (DNMT3B knockdown cells): 0.229 | Mean promoter methylation, CACNA1G cg18454685 (DNMT3B knockdown cells): 0.286 | Mean promoter methylation, CAMKK2 cg01369981 (DNMT3B knockdown cells): 0.191 | Mean promoter methylation, CART cg23300372 (DNMT3B knockdown cells): 0.160 | Mean promoter methylation, CCKBR cg13346411 (DNMT3B knockdown cells): 0.197 | Mean promoter methylation, CDC42EP1 cg13951472 (DNMT3B knockdown cells): 0.217 | Mean promoter methylation, CDKN2A cg10895543 (DNMT3B knockdown cells): 0.168 | Mean promoter methylation, CHST8 cg24739326 (DNMT3B knockdown cells): 0.319 | Mean promoter methylation, CPSF1 cg20326853 (DNMT3B knockdown cells): 0.241 | Mean promoter methylation, CSMD1 cg22619018 (DNMT3B knockdown cells): 0.201 | Mean promoter methylation, DCTN3 cg22579849 (DNMT3B knockdown cells): 0.325 | Mean promoter methylation, DDX42 cg05797656 (DNMT3B knockdown cells): 0.192 | Mean promoter methylation, DGKD cg25506396 (DNMT3B knockdown cells): 0.202 | Mean promoter methylation, DGKI cg06277657 (DNMT3B knockdown cells): 0.190 | Mean promoter methylation, DKK2 cg01404615 (DNMT3B knockdown cells): 0.398 | Mean promoter methylation, DUSP8 cg02271621 (DNMT3B knockdown cells): 0.135 | Mean promoter methylation, EHD2 cg12603043 (DNMT3B knockdown cells): 0.176 | Mean promoter methylation, ELK1 cg21860846 (DNMT3B knockdown cells): 0.181 | Mean promoter methylation, EMP3 cg01795122 (DNMT3B knockdown cells): 0.127 | Mean promoter methylation, EYA4 cg01805282 (DNMT3B knockdown cells): 0.174 | Mean promoter methylation, FAM70B cg15350194 (DNMT3B knockdown cells): 0.222 | Mean promoter methylation, FAM73B cg00729541 (DNMT3B knockdown cells): 0.213 | Mean promoter methylation, FCHSD2 cg17114257 (DNMT3B knockdown cells): 0.179 | Mean promoter methylation, FLJ20273 cg01704534 (DNMT3B knockdown cells): 0.222 | Mean promoter methylation, FLJ20273 cg15967525 (DNMT3B knockdown cells): 0.362 | Mean promoter methylation, FLJ42486 cg03734874 (DNMT3B knockdown cells): 0.287 | Mean promoter methylation, GAB3 cg12938998 (DNMT3B knockdown cells): 0.235 | Mean promoter methylation, GALR1 cg04534765 (DNMT3B knockdown cells): 0.176 | Mean promoter methylation, GCN5L2 cg08434547 (DNMT3B knockdown cells): 0.249 | Mean promoter methylation, GNAS cg00943909 (DNMT3B knockdown cells): 0.097 | Mean promoter methylation, HBQ1 cg07703401 (DNMT3B knockdown cells): 0.220 | Mean promoter methylation, HCN1 cg11285003 (DNMT3B knockdown cells): 0.202 | Mean promoter methylation, HES6 cg24127874 (DNMT3B knockdown cells): 0.377 | Mean promoter methylation, HEYL cg25462291 (DNMT3B knockdown cells): 0.218 | Mean promoter methylation, HRH3 cg08186362 (DNMT3B knockdown cells): 0.297 | Mean promoter methylation, ICAM1 cg22874046 (DNMT3B knockdown cells): 0.144 | Mean promoter methylation, ID2 cg23525180 (DNMT3B knockdown cells): 0.201 | Mean promoter methylation, IGFBP3 cg04796162 (DNMT3B knockdown cells): 0.230 | Mean promoter methylation, KATNB1 cg15153383 (DNMT3B knockdown cells): 0.265 | Mean promoter methylation, KCNAB1 cg23873703 (DNMT3B knockdown cells): 0.334 | Mean promoter methylation, KCNC2 cg18573383 (DNMT3B knockdown cells): 0.159 | Mean promoter methylation, KIAA1822 cg02867079 (DNMT3B knockdown cells): 0.345 | Mean promoter methylation, KIAA1840 cg06121469 (DNMT3B knockdown cells): 0.191 | Mean promoter methylation, KRTCAP2 cg11278262 (DNMT3B knockdown cells): 0.257 | Mean promoter methylation, LGALS1 cg00292662 (DNMT3B knockdown cells): 0.230 | Mean promoter methylation, LGR6 cg23578193 (DNMT3B knockdown cells): 0.187 | Mean promoter methylation, LOX cg06508445 (DNMT3B knockdown cells): 0.101 | Mean promoter methylation, MAP6D1 cg03705396 (DNMT3B knockdown cells): 0.201 | Mean promoter methylation, MGC9850 cg21097640 (DNMT3B knockdown cells): 0.218 | Mean promoter methylation, MRPL38 cg11653266 (DNMT3B knockdown cells): 0.155 | Mean promoter methylation, MT cg14078309 (DNMT3B knockdown cells): 0.154 | Mean promoter methylation, MYOD1 cg18555440 (DNMT3B knockdown cells): 0.321 | Mean promoter methylation, OGG1 cg25415932 (DNMT3B knockdown cells): 0.240 | Mean promoter methylation, OR10J1 cg25076881 (DNMT3B knockdown cells): 0.335 | Mean promoter methylation, OSTbeta cg16029760 (DNMT3B knockdown cells): 0.144 | Mean promoter methylation, PABPC4 cg12585282 (DNMT3B knockdown cells): 0.221 | Mean promoter methylation, PDE8B cg18089852 (DNMT3B knockdown cells): 0.130 | Mean promoter methylation, PHLDA2 cg01263716 (DNMT3B knockdown cells): 0.248 | Mean promoter methylation, PHLDA2 cg04720330 (DNMT3B knockdown cells): 0.195 | Mean promoter methylation, PIB5PA cg18053607 (DNMT3B knockdown cells): 0.247 | Mean promoter methylation, PLOD1 cg23286660 (DNMT3B knockdown cells): 0.235 | Mean promoter methylation, PPCDC cg11632617 (DNMT3B knockdown cells): 0.269 | Mean promoter methylation, PRDM12 cg09191327 (DNMT3B knockdown cells): 0.240 | Mean promoter methylation, PRMT8 cg23739862 (DNMT3B knockdown cells): 0.116 | Mean promoter methylation, PTPRO cg19402885 (DNMT3B knockdown cells): 0.303 | Mean promoter methylation, PTPRO cg27196745 (DNMT3B knockdown cells): 0.267 | Mean promoter methylation, R3HDML cg17692403 (DNMT3B knockdown cells): 0.288 | Mean promoter methylation, RAB37 cg12448933 (DNMT3B knockdown cells): 0.241 | Mean promoter methylation, RASA4 cg05749161 (DNMT3B knockdown cells): 0.102 | Mean promoter methylation, RASL11A cg06611744 (DNMT3B knockdown cells): 0.208 | Mean promoter methylation, SCAMP3 cg01745448 (DNMT3B knockdown cells): 0.209 | Mean promoter methylation, SCARA5 cg10171125 (DNMT3B knockdown cells): 0.239 | Mean promoter methylation, SEC14L2 cg14452140 (DNMT3B knockdown cells): 0.337 | Mean promoter methylation, SH3BGRL3 cg03100146 (DNMT3B knockdown cells): 0.341 | Mean promoter methylation, SHH cg00577464 (DNMT3B knockdown cells): 0.212 | Mean promoter methylation, SLC6A5 cg20632573 (DNMT3B knockdown cells): 0.192 | Mean promoter methylation, SLC25A22 cg02973416 (DNMT3B knockdown cells): 0.318 | Mean promoter methylation, SLC35C2 cg02413850 (DNMT3B knockdown cells): 0.155 | Mean promoter methylation, SLIT1 cg07143898 (DNMT3B knockdown cells): 0.176 | Mean promoter methylation, SORCS3 cg16787600 (DNMT3B knockdown cells): 0.384 | Mean promoter methylation, SOX15 cg01029592 (DNMT3B knockdown cells): 0.171 | Mean promoter methylation, SOX15 cg13098960 (DNMT3B knockdown cells): 0.261 | Mean promoter methylation, SOX17 cg02919422 (DNMT3B knockdown cells): 0.329 | Mean promoter methylation, STXBP3 cg11666924 (DNMT3B knockdown cells): 0.194 | Mean promoter methylation, SUSD2 cg23349242 (DNMT3B knockdown cells): 0.329 | Mean promoter methylation, TBXA2R cg09998229 (DNMT3B knockdown cells): 0.256 | Mean promoter methylation, THAP3 cg11688219 (DNMT3B knockdown cells): 0.344 | Mean promoter methylation, TMEM25 cg20001829 (DNMT3B knockdown cells): 0.238 | Mean promoter methylation, TMEM106C cg25884854 (DNMT3B knockdown cells): 0.229 | Mean promoter methylation, TRAPPC1 cg01667702 (DNMT3B knockdown cells): 0.231 | Mean promoter methylation, UBA52 cg24356797 (DNMT3B knockdown cells): 0.145 | Mean promoter methylation, UNQ2446 cg10574499 (DNMT3B knockdown cells): 0.218 | Mean promoter methylation, VPREB1 cg18441959 (DNMT3B knockdown cells): 0.230 | Mean promoter methylation, ZGPAT cg04078896 (DNMT3B knockdown cells): 0.191 | Mean promoter methylation, ZGPAT cg18611245 (DNMT3B knockdown cells): 0.379 | Mean promoter methylation, ZNF585B cg03751813 (DNMT3B knockdown cells): 0.182 | Mean promoter methylation, ZNF702 cg07559730 (DNMT3B knockdown cells): 0.221
